From patent US20230090389A1 (Novartis AG, priority 2020, published 2023)

Tests used:
[1] = test system: BRAF mutant human cell line xenograft HT29; experiment: BRAF mutant human cell line xenograft HT29 in mice; type: in vivo; conditions: clinically relevant doses
[2] = test system: six BRAFV600E CRC cell lines; experiment: growth inhibition (CellTiter-Glo, 7 days) in six BRAF-mutant CRC cell lines; type: cell-based; conditions: seven treatment days; dabrafenib 30 nM, Compound A 300 nM, compound B 1.1 μM
Description: Compound A: selective ATP-competitive ERK1 and ERK2 kinase inhibitor. Compound B: selective allosteric inhibitor of SHP2. The compounds were dissolved in 100% DMSO and stored at -20° C. as 10 mM stock solutions.
In this study, we used six BRAF-mutant colorectal cancer cell lines. We acquired all the cell lines from ATCC and cultured them at 37° C. 5% CO2 in the recommended media conditions: Colo205, LIM2405, SNUC5 and SW1417: RPMI 1640 (Amimed, #1-41F01-I) supplemented with 1% L-glutamine, 10 mM HEPES (Amimed, #5-31F00-H), 1% Na-pyruvate (Amimed, #5-60F00-H), 10% FCS. MDST8: DMEM high glucose (Amimed, #1-26F01-I) supplemented with 1% L-glutamine, 10% FCS. RKO: EMEM (Amimed, #1-31S01-1) supplemented with 1% L-glutamine, 10% FCS. […]
Seven days after treatment initiation, cell growth was determined using CellTiter-Glo® (Promega, #G7573), which measures the amount of ATP in the well. […] Cell lysis was induced for two minutes on an orbital shaker, the plates were incubated at room temperature for ten minutes, and luminescence was recorded.
To summarize the data of this study clearly, the percentage of growth inhibition versus DMSO (% GI) at single compound concentrations were reported. […] Raw data values were normalized to day 0, the time of treatment initiation, so that the % GI could be calculated. […]

Row | Compound | anti-tumor response, T/C [1] [% T/C] | cell growth inhibition (% GI vs DMSO) [2]
1 | CNC[C@@H](NC(=O)c1ccc(-c2nc([C@H]3CC[C@H](O)[C@@H](F)C3)cnc2N)cc1F)c1cc(F)cc(Br)c1 [Compound A, 4-(3-amino-6-((1S,3 S,4S)-3-fluoro-4-hydroxycyclohexyl)pyrazin-2-yl)-N-((S)-1-(3-bromo-5-fluorophenyl)-2-(methylamino)ethyl)-2-fluorobenzamide] | 54 | 
2 | CC(C)(C)c1nc(-c2cccc(NS(=O)(=O)c3c(F)cccc3F)c2F)c(-c2ccnc(N)n2)s1 [Dabrafenib, N-(3-(5-(2-aminopyrimidin-4-yl)-2-(tert-butyl)thiazol-4-yl)-2-fluorophenyl)-2,6-difluorobenzenesulfonamide] | 59 | 
3 | C[C@@H]1OCC2(CCN(c3cnc(Sc4ccnc(N)c4Cl)c(N)n3)CC2)[C@@H]1N [Compound B, (3S,4S)-8-(6-amino-5-((2-amino-3-chloropyridin-4-yl)thio)pyrazin-2-yl)-3-methyl-2-oxa-8-azaspiro[4.5]decan-4-amine] |  | no effect
4 | CC(=O)Nc1cccc(-n2c(=O)n(C3CC3)c(=O)c3c(Nc4ccc(I)cc4F)n(C)c(=O)c(C)c32)c1 [Trametinib] | 48 | 
